From patent US20130210809A1, “NOVEL 2-AMINO-4-PYRAZOLYL-THIAZOLE DERIVATIVES AND THEIR USE AS ALLOSTERIC MODULATORS OF METABOTROPIC GLUTAMATE RECEPTORS” (priority 2010, published 2013) come the findings set out here.

Where only a bound is given, the exact number is not on record here.

The target in data set [1] is T1, recombinant human mGluR4a receptors (Homo sapiens, UniProt Q14833).
T1 construct: expressed in transfected cells
Kind of data set: mGluR4 assay on HEK-expressing human mGluR4 (fluorescent cell based Ca2+ mobilization assay, FLIPR). Particulars: HEK-293 cells expressing hmGluR4; enhancement of EC25 glutamate response; mean of at least three independent experiments in duplicate; read-out: Ca^2+ Flux (mean EC50). The text has this:
mGluR4 Assay on HEK-Expressing Human mGluR4
The compounds of the present invention are positive allosteric modulators of mGluR4 receptor. Their activity was examined on recombinant human mGluR4a receptors by detecting changes in intracellular Ca^2+ concentration, using the fluorescent Ca^2+-sensitive dye Fluo4-(AM) and a Fluorometric Imaging Plate Reader (FLIPR, Molecular Devices, Sunnyvale, Calif.).
The cDNA encoding the human metabotropic glutamate receptor (hmGluR4), (accession number NM_000841.1, NCBI Nucleotide database browser), was subcloned into an expression vector containing also the Hygromycin resistance gene. In parallel, the cDNA encoding a G protein allowing redirection of the activation signal to intracellular calcium flux was subcloned into a different expression vector containing also the Puromycin resistance gene. Transfection of both these vectors into HEK293 cells with PolyFect reagent (Qiagen) according to supplier's protocol, and hygromycin and puromycin treatment allowed selection of antibiotic resistant cells which had integrated stably one or more copies of the plasmids. Positive cellular clones expressing hmGluR4 were identified in a functional assay measuring changes in calcium flux in response to glutamate or selective known mGluR4 orthosteric agonists and antagonists. HEK-293 cells expressing hmGluR4 were maintained in media containing DMEM, dialyzed Fetal Calf Serum (10%), Glutamax™ (2 mM), Penicillin (100 units/mL), Streptomycin (100 μg/mL), Geneticin (100 μg/mL) and Hygromycin-B (40 μg/mL) and Puromycin (1 μg/mL) at 37° C./5% CO2.
Human mGluR4 HEK-293 cells were plated out 24 hours prior to FLIPR^384 assay in black-walled, clear-bottomed, poly-L-ornithine-coated 384-well plates at a density of 25,000 cells/well in a glutamine/glutamate free DMEM medium containing foetal bovine serum (10%), penicillin (100 units/mL) and streptomycin (100 μg/mL) at 37° C./5% CO2.
On the day of the assay, the medium was aspirated and the cells were loaded with a 3 μM solution of Fluo4-AM (LuBioScience, Lucerne, Switzerland) in 0.03% pluronic acid. After 1 hour at 37° C./5% CO2, the non incorporated dye was removed by washing cell plate with the assay buffer and the cells were left in the dark at it for six hours before testing. All assays were performed in a pH 7.4 buffered-solution containing 20 mM HEPES, 143 mM NaCl, 6 mM KCl, 1 mM MgSO4, 1 mM CaCl2, 0.125 mM sulfapyrazone and 0.1% glucose.
After 10 s of basal fluorescence recording, various concentrations of the compounds of the invention were added to the cells. Changes in fluorescence levels were first monitored for 180 s in order to detect any agonist activity of the compounds. Then the cells were stimulated by an EC25 glutamate concentration for an additional 110 s in order to measure enhancing activities of the compounds of the invention. EC25 glutamate concentration is the concentration giving 25% of the maximal glutamate response.
The concentration-response curves of representative compounds of the present invention were generated using the Prism GraphPad software (Graph Pad Inc, San Diego, USA). The curves were fitted to a four-parameter logistic equation:
(Y=Bottom+(Top−Bottom)/(1+10̂((Log EC50-X)*Hill Slope)
allowing the determination of EC50 values.
The Table 3 below represents the mean EC50 obtained from at least three independent experiments of selected molecules performed in duplicate.
(In general: Calcium assays in cells follow changes in intracellular calcium, usually with a dye or a luminescent sensor.)

T1 sequence (Q14833 33-912): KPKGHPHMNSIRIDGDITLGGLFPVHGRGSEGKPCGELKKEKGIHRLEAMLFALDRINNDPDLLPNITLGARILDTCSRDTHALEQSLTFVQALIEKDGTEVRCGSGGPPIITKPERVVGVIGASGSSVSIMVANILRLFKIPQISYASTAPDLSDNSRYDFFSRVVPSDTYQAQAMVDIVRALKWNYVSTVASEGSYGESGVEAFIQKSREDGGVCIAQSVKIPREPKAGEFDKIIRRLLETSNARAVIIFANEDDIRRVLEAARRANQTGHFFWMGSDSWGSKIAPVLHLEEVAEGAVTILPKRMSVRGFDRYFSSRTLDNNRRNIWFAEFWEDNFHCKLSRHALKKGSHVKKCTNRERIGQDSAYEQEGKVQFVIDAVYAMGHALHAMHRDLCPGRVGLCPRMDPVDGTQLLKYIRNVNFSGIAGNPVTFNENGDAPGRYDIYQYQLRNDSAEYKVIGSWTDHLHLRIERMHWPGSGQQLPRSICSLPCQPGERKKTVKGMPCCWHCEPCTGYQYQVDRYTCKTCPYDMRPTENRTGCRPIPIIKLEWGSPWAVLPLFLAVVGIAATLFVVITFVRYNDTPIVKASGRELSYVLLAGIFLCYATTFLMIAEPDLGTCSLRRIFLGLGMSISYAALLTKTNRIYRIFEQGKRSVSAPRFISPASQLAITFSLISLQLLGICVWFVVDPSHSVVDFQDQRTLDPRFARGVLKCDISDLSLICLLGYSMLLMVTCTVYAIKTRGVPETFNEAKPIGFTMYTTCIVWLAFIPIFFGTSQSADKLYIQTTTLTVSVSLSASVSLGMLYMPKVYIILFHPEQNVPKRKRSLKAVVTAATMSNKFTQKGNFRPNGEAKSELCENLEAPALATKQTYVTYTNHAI

In general, melting point refers to the temperature, or range, at which the solid turns liquid. Broadly, the EC50 is the concentration that produces a half-maximal response. As for `COc1ccc(F)cc1-c1n[nH]cc1-c1csc(Nc2nccc(C)n2)n1` [Compound 1-5, 4-(3-(5-Fluoro-2-methoxyphenyl)-1H-pyrazol-4-yl)-N-(4-methylpyrimidin-2-yl)thiazol-2-amine], the melting point is 247 °C. In addition, the EC50 in data set [1] lay in the range of 100 to 1000 nM.
Regarding `Cc1ccnc(Nc2nc(-c3c[nH]nc3C(=O)c3ccccc3)cs2)n1` [Compound 1-25, (4-(2-(4-Methylpyrimidin-2-ylamino)thiazol-4-yl)-1H-pyrazol-3-yl)(phenyl)methanone], the melting point lay within 254 to 255 °C.
`Cc1ccnc(Nc2nc(-c3c[nH]nc3C(O)c3ccccc3)cs2)n1` (stereo not drawn) [Compound 1-26, (4-(2-(4-Methylpyrimidin-2-ylamino)thiazol-4-yl)-1H-pyrazol-3-yl)(phenyl)methanol] displayed a melting point of 249.5 °C. The EC50 in data set [1] lay within 1000 to 10000 nM.
With `Cc1ccnc(Nc2nc(-c3cn[nH]c3C(=O)C3CC3)cs2)n1` [Compound 1-27, Cyclopropyl(4-(2-(4-methylpyrimidin-2-ylamino)thiazol-4-yl)-1H-pyrazol-5-yl)methanone], the melting point lay in the range of 239 to 240 °C. Besides, the EC50 in data set [1] is 100 to 1000 nM.
In the same order, the values of `Cc1ccnc(Nc2nc(-c3c[nH]nc3-c3cccc(N(C)C)c3)cs2)n1` [Compound 1-30, 4-(3-(3-(Dimethylamino)phenyl)-1H-pyrazol-4-yl)-N-(4-methylpyrimidin-2-yl)thiazol-2-amine] are 239 to 241 °C and 1000 to 10000 nM.
Consider `Cc1ccnc(Nc2nc(-c3cn[nH]c3-c3cccc(C#N)c3F)cs2)n1` [Compound 1-35, 2-Fluoro-3-(4-(2-(4-methylpyrimidin-2-ylamino)thiazol-4-yl)-1H-pyrazol-5-yl)benzonitrile], for which the EC50 in data set [1] is less than 100 nM.
Still for that read-out and setting: as for `COCc1n[nH]cc1-c1csc(Nc2ncc(F)cn2)n1` [Compound 1-37, N-(5-Fluoropyrimidin-2-yl)-4-(3-(methoxymethyl)-1H-pyrazol-4-yl)thiazol-2-amine], the figure is 1000 to 10000 nM.
On to `CCc1ccnc(Nc2nc(-c3c[nH]nc3COC)cs2)n1` [Compound 1-38, N-(4-Ethylpyrimidin-2-yl)-4-(3-(methoxymethyl)-1H-pyrazol-4-yl)thiazol-2-amine], for which, in data set [1], the EC50 was in the range of 1000 to 10000 nM.
Consider `COC(=O)N1CC=C(c2n[nH]cc2-c2csc(Nc3nccc(C)n3)n2)C1` [Compound 1-39, Methyl 3-(4-(2-(4-methylpyrimidin-2-ylamino)thiazol-4-yl)-1H-pyrazol-3-yl)-2,5-dihydro-1H-pyrrole-1-carboxylate], for which the EC50 in data set [1] lay within 100 to 1000 nM.
Regarding `CC(=O)N1CC=C(c2n[nH]cc2-c2csc(Nc3nccc(C)n3)n2)CC1` [Compound 1-40, 1-(4-(4-(2-(4-Methylpyrimidin-2-ylamino)thiazol-4-yl)-1H-pyrazol-3-yl)-5,6-dihydropyridin-1(2H)-yl)ethanone], the EC50 in data set [1] was in the range of 1000 to 10000 nM.
Take `COC(=O)N1CC=C(c2n[nH]cc2-c2csc(Nc3nccc(C)n3)n2)CC1` [Compound 1-41, Methyl 4-(4-(2-(4-methylpyrimidin-2-ylamino)thiazol-4-yl)-1H-pyrazol-3-yl)-5,6-dihydropyridine-1 (2H)-carboxylate]: the EC50 in data set [1] lay within 1000 to 10000 nM.
As for `Cc1ccnc(Nc2nc(-c3c[nH]nc3-c3cccc(N4CCC(O)C4)c3)cs2)n1` (stereo not drawn) [Compound 1-42, 1-(3-(4-(2-(4-Methylpyrimidin-2-ylamino)thiazol-4-yl)-1H-pyrazol-3-yl)phenyl)pyrrolidin-3-ol], in data set [1], the EC50 lay within 100 to 1000 nM.
Consider `Cc1nc(Nc2nc(-c3cn[nH]c3)c(C#N)s2)ns1` [Compound 1-44, 2-(5-Methyl-1,2,4-thiadiazol-3-ylamino)-4-(1H-pyrazol-4-yl)thiazole-5-carbonitrile], for which the EC50 in data set [1] is less than 100 nM.
The same measure, in the same setting: to `N#Cc1sc(Nc2nccnn2)nc1-c1cn[nH]c1` [Compound 1-45, 2-(1,2,4-Triazin-3-ylamino)-4-(1H-pyrazol-4-yl)thiazole-5-carbonitrile] belongs 100 to 1000 nM.
In turn, `CC(=O)c1sc(Nc2nccc(C)n2)nc1-c1cn[nH]c1` [Compound 1-46, 1-(2-(4-Methylpyrimidin-2-ylamino)-4-(1H-pyrazol-4-yl)thiazol-5-yl)ethanone] yielded a melting point of 288 to 291 °C. Also, in data set [1], the EC50 lay in the range of 100 to 1000 nM.
In the case of `CCOc1sc(Nc2nccc(C)n2)nc1-c1cn[nH]c1` [Compound 1-47, 5-Ethoxy-N-(4-methylpyrimidin-2-yl)-4-(1H-pyrazol-4-yl)thiazol-2-amine], the EC50 in data set [1] was less than 100 nM.
